According to ChEMBL document CHEMBL2074544 (J Lipid Res, 2000):

Tests used:
[1] = molecular target: T1, Oct1 (Solute carrier family 22 member 1) (Mus musculus, UniProt O08966); experiment: TP_TRANSPORTER: inhibition of TEA uptake (TEA: 50 uM, NMN: 10000 uM) in Oct1-expressing BALB/3T3 cells; type: functional, cell-based; design: scale not given: the % may be the effect or the level left; details: BALB/3T3 cells expressing Oct1, probe TEA (50 uM), read-out: Activity
T1 sequence (O08966 whole entry): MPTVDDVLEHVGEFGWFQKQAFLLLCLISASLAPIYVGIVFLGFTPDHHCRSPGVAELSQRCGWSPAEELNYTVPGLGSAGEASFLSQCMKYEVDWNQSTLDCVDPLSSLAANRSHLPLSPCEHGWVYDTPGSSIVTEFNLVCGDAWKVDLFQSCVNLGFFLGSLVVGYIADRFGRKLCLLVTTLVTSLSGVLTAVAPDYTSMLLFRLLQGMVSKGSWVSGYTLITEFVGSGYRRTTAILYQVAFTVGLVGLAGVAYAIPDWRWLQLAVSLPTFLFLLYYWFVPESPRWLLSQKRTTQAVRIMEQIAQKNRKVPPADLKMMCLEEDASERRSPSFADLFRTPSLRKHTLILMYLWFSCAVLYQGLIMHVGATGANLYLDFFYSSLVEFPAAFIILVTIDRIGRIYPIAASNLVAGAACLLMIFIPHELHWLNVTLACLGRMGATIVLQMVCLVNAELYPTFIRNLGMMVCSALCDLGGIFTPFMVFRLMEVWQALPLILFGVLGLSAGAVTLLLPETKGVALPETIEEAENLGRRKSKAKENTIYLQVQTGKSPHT

[2] = molecular target: T1, Oct1 (Solute carrier family 22 member 1); experiment: TP_TRANSPORTER: inhibition of TEA uptake (TEA: 50 uM, Quinidine: 1000 uM) in Oct1-expressing BALB/3T3 cells; type: functional, cell-based; design: scale not given: the % may be the effect or the level left; details: BALB/3T3 cells expressing Oct1, probe TEA (50 uM), read-out: Activity
[3] = molecular target: T2, Solute carrier family 22 member 1 (Mus musculus, UniProt O08966); experiment: TP_TRANSPORTER: inhibition of TEA uptake (TEA: 50 uM, TMA: 10000 uM) in Oct1-expressing BALB/3T3 cells; type: functional, cell-based; design: scale not given: the % may be the effect or the level left
T2 sequence (O08966 whole entry): T1 sequence (O08966 whole entry)

[4] = molecular target: T1, Oct1 (Solute carrier family 22 member 1); experiment: in vitro; details: BALB/3T3 cells expressing Oct1, probe TEA (50 uM)
Description: TP_TRANSPORTER: inhibition of TEA uptake (TEA: 50 uM, Thiamine: 10000 uM) in Oct1-expressing BALB/3T3 cells

[5] = substrate: CCCC[N+](CCCC)(CCCC)CCCC; experiment: cells, lysate or membranes named
[6] = substrate: C[N+](C)(C)CCO; experiment: cells, lysate or membranes named

CNC(=O)c1cccnc1 [NICOTINYL METHYLAMIDE]
activity at 10000 uM [1]: 0%

C=C[C@H]1C[N@@]2CC[C@H]1C[C@@H]2[C@@H](O)c1ccnc2ccc(OC)cc12 [QUINIDINE]
activity at 1000 µM [2]: 0%

C[N+](C)(C)C.[Cl-] [TETRAMETHYLAMMONIUM]
Activity [3]: 0%

Cc1ncc(C[n+]2csc(CCO)c2C)c(N)n1 [THIAMINE ION]
activity at 10000 uM [4]: 0%

B1: Solute carrier family 22 member 1 (Mus musculus) (protein)
chain: T1 sequence (O08966 whole entry)
Km [5]: 43 µM
Km [6]: 42 µM
